Measured values: patent US9133199B2, “Pyrimidine derivatives as protein kinase inhibitors” (Cyclacel Limited, priority 2007, dated 2015)
Counter-ions that a name gives are not always drawn. Like-named read-outs stand apart in the source and are kept apart here. One block for each molecule: values may come before it.

Key:
PLK2 = PLK2 (Homo sapiens (Human), UniProt Q9NYY3); test: PLK selectivity: PLK2 inhibition; assay type: biochemical; conditions: for PLK2 IC50/PLK1 IC50: selectivity ratio
PLK3 = PLK3 (Homo sapiens (Human), UniProt Q9H4B4); test: PLK selectivity: PLK3 inhibition; assay type: biochemical; conditions: for PLK3 IC50/PLK1 IC50: selectivity ratio
human PLK1 = human PLK1 (Homo sapiens (Human), UniProt P53350); test: PLK1 protein kinase assay (CDC25C phosphorylation, [γ-32P]-ATP); assay type: biochemical
[1] = Nephelometry kinetic solubility; assay type: physicochemical
Source text: If a DMSO solution of a water soluble compound is introduced into aqueous buffer, the mixture remains clear unless the aqueous solubility limit is reached. Above the solubility limit, precipitation occurs and light travelling through the turbid suspension is scattered. The measurement of the intensity of the scattered light is the basis of nephelometric solubility determination.
Selected compounds were screened using a nephelometer to identify the concentration at which turbidity occurs, thereby giving an indication of kinetic solubility. By nephelometry (2% DMSO: 98% phosphate buffered saline pH 7.5) compound [254] was freely soluble at 200 μM (>0.11 mg/mL) which is the highest concentration tested in this assay. In contrast, in the same nephelometry assay, the maximum soluble concentration of prior art Example [I-253] of WO 07/095,188 was determined to be 75 μM (Table 6).

A2780/ADR cells = test: Cell viability assay (Alamar Blue, 72 hours), MDR line; assay type: cell-based, human; conditions: paired parental and MDR tumour cell lines (A2780-A2780/ADR, MES-SA-MES-SA/Dx5)
Source text: In vitro cell viability assays have been used to measure the effect of drug accumulation in paired parental and drug resistant tumour cell lines. The pairs used are the human ovarian carcinoma A2780 line with its MDR counterpart A2780/ADR and the human uterine sarcoma MES-SA line with its MDR counterpart MES-SA/Dx5 [Wesolowska O., et al. (2005) Anticancer Res., 25, 383-389].
Method: Cultivated human tumour cells of the ovarian cell line A2780 and its doxorubicin-resistant pair, A2780/ADR and the uterine cell line MES-SA and its doxorubicin-resistant pair, MES-SA/DX5 were seeded at 3000 cells per well in Nunc 96-well tissue culture plates, 100 μl per well in DMEM media containing 10% foetal calf serum and penicillin/streptomycin. […] The plates were then read at 544/595 nm.
The amount of Alamar Blue reagent reacted represents the metabolic activity of the cells. […] The values were calculated from the average of three individual measurements with blank correction (medium-only control).
The assay was performed on the Biomek FxP, automation platform from Beckman Coulter. The plates were read on the Paradigm plate reader supplied by Beckman Coulter. Asymmetry ratios were calculated as the IC50 value of the compound in the drug resistant cells divided by the IC50 value in the parental cells. […]

[2] = Pharmacokinetics in fasted conscious CD-1 mice (iv and oral); assay type: in vivo; conditions: compared to compounds A-G
Procedure: Preliminary investigations of the pharmacokinetics of selected compounds were carried out in fasted conscious CD-1 mice (25-30 g). Compounds were dosed as 1 mg/kg by intravenous administration or 5-10 mg/kg by oral route. Twenty one male mice per administration route (n=3 mice per time point) received dose solution by single bolus injection in the tail vein or by oral gavage. Blood samples were collected by cardiac puncture at 5, 15, 30, 60, 120, 240 and 360 min following iv administration and at 30, 60, 120, 240, 360, 480 and 1440 min following oral administration. Blood samples were collected into tubes containing the anti-coagulant lithium heparin, mixed and placed promptly on crushed ice. Plasma was derived from whole blood by centrifugation, frozen and stored at −80° C. prior to analysis. Plasma concentrations were determined by liquid chromatography-tandem mass spectrometry in electrospray positive mode (ESI LC/MS/MS) using calibration curves prepared in the appropriate matrix. The lower level of quantification (LLOQ) in all cases was ca. 5 ng/mL. Plasma concentration-time data was processed using the computer program WinNonLin version 5.2 from which areas under the plasma concentration-time curve (AUCall) were calculated by non-compartmental analysis using Model 201 (IV-bolus Input) or Model 200 (Extravascular Input).
FIG. 1 plots the area under the curve (AUC) for plasma concentration vs time for each compound tested. The dosing vehicle across these experiments remained constant (intravenous=citrate buffer pH 3, 1 mL/kg; oral=DMA/PEG400/10 mM Tartrate buffer, pH 4 (1:3:6), 5 ml/kg). FIG. 2 represents the same data in the form of oral bioavailability (% F) for each compound.

[3] = phosphate buffered saline with 2% DMSO, pH 7.5, aqueous buffer, kinetic from dmso stock, 2% DMSO: 98% phosphate buffered saline pH 7.5, highest concentration tested 200 μM, read-out: Nephelometry maximum soluble concentration

Chain of PLK3 (Q9H4B4 whole entry): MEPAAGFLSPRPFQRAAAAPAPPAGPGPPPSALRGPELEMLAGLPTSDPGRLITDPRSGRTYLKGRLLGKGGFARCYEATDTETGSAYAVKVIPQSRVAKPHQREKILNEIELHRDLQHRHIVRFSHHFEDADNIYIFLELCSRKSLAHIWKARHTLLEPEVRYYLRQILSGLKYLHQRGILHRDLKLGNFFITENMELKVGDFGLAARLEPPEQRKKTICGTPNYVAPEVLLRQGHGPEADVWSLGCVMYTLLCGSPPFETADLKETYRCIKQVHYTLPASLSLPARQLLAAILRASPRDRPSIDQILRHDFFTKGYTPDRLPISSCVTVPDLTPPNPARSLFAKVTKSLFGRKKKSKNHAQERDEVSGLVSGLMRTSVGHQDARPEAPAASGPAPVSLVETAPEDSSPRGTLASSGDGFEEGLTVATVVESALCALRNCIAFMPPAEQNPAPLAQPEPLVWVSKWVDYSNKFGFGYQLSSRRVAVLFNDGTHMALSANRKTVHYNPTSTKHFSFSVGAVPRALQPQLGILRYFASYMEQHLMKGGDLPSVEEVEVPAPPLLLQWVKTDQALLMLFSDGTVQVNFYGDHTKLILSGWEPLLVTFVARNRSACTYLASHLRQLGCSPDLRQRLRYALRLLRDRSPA
Chain of PLK2 (Q9NYY3 whole entry): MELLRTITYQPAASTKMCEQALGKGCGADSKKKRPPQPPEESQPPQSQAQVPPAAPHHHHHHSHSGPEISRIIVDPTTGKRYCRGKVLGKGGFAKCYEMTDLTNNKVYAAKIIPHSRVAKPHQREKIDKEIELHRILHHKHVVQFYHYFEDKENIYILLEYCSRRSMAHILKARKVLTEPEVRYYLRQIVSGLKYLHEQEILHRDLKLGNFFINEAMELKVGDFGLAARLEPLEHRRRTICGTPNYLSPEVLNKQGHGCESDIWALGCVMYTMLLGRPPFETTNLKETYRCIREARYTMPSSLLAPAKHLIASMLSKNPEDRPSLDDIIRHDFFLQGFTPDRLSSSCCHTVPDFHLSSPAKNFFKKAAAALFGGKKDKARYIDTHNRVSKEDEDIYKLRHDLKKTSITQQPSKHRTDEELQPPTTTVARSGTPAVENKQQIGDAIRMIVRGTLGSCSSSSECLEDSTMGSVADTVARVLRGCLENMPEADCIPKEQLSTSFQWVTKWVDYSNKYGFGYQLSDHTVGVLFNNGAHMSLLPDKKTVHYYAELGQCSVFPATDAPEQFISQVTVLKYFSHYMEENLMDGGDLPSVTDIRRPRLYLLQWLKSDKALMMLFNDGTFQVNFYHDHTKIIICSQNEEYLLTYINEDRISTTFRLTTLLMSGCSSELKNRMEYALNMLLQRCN
Chain of human PLK1 (P53350 whole entry): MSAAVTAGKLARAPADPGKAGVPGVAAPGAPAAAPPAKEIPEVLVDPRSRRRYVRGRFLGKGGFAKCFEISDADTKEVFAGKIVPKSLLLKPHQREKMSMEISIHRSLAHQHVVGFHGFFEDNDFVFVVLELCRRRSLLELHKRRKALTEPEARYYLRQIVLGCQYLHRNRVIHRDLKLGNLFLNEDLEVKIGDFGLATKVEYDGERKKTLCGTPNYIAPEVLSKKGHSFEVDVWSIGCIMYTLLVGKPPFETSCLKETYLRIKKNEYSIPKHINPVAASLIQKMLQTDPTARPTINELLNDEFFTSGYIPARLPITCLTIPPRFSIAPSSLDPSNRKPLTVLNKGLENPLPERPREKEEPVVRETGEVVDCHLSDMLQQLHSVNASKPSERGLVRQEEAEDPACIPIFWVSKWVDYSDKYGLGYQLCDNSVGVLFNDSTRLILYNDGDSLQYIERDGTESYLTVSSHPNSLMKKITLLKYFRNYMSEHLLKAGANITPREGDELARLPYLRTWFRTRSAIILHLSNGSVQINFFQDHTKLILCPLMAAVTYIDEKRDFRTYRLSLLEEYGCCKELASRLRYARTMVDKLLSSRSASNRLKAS

- oral bioavailability (% F) [2]: markedly superior
- systemic exposure (AUC of plasma concentration vs time) ([2]; iv 1 mg/kg and oral 5-10 mg/kg): markedly superior
Compound: COc1cc(C(=O)N[C@H]2CC[C@H](N3CCN(CC4CC4)CC3)CC2)ccc1Nc1ncc2c(n1)N(C1CCCC1)CCC(=O)N2C [Compound 378, 4-(9-cyclopentyl-5-methyl-6-oxo-6,7,8,9-tetrahydro-5H-pyrimido[4,5-b][1,4]diazepin-2-ylamino)-N-((trans)-4-(4-(cyclopropylmethyl)piperazin-1-yl)cyclohexyl)-3-methoxybenzamide]

- IC50 (human PLK1; Table 3, read-out: PLK 1 IC50): < 0.1 µM
Compound: COc1cc(C(=O)NC2CCC(N3CCCN(Cc4ccccc4)CC3)CC2)ccc1Nc1ncc2c(n1)N(C1CCCC1)CC1(CC1)C(=O)N2C (centres unmarked) [Compound 383, N-(4-(4-benzyl-1,4-diazepan-1-yl)cyclohexyl)-4-(9′-cyclopentyl-5′-methyl-6′-oxo-5′,6′,8′,9′-tetrahydrospiro[cyclopropane-1,7′-pyrimido[4,5-b][1,4]diazepine]-2′-ylamino)-3-methoxybenzamide]

- IC50 (human PLK1; Table 3, read-out: PLK 1 IC50): 0.1 to 1 µM
Compound: COc1cc(C(=O)N[C@H]2CC[C@@H](N3CCOCC3)CC2)ccc1Nc1ncc2c(n1)N(C1CCCC1)CC1(CC1)C(=O)N2C [Compound 391, 4-(9′-cyclopentyl-5′-methyl-6′-oxo-5′,6′,8′,9′-tetrahydrospiro[cyclopropane-1,7′-pyrimido[4,5-b][1,4]diazepine]-2′-ylamino)-3-methoxy-N-((cis)-4-morpholinocyclohexyl)benzamide]

- solubility [1, 3]: 75 µM
Compound: COc1cc(C(=O)NN2CCCC2)ccc1Nc1ncc2c(n1)N(C1CCCC1)CC1(CC1)C(=O)N2C [Example [I-253] of WO 07/095188, reference compound]

- PLK2 IC50/PLK1 IC50 (PLK2): 6
- PLK3 IC50/PLK1 IC50 (PLK3): 26
Compound: COc1cc(C(=O)NC2CCN(C)CC2)ccc1Nc1ncc2c(n1)N(C1CCCC1)CC1(CC1)C(=O)N2C [WO 2007/095188 [I-76], reference compound]

- solubility ([1]; pH 7.5, read-out: Nephelometry maximum soluble concentration): >200 µM
Compound: COc1cc(C(=O)NN2CCN(C)CC2)ccc1Nc1ncc2c(n1)N(C1CCCC1)CC1(CC1)C(=O)N2C [[254]•HCl, 4-(9′-cyclopentyl-5′-methyl-6′-oxo-5′,6′,8′,9′-tetrahydrospiro[cyclopropane-1,7′-pyrimido[4,5-b][1,4]diazepine]-2′-ylamino)-3-methoxy-N-(4-methylpiperazin-1-yl)benzamide•HCl]

Further lines, the molecule ahead of its results:

Compound: COc1cc(C(=O)NC2CN3CCC2CC3)ccc1Nc1ncc2c(n1)N(C1CCCC1)CC1(CCC1)C(=O)N2C (racemic) [Compound 218, (±)-4-(9′-cyclopentyl-5′-methyl-6′-oxo-5′,6′,8′,9′-tetrahydrospiro[cyclobutane-1,7′-pyrimido[4,5-b][1,4]diazepine]-2′-ylamino)-3-methoxy-N-(quinuclidin-3-yl)benzamide]
- selectivity for PLK1 versus PLK2 compared to compound [I-4] (PLK2; relative to [I-4]): 7 fold
- selectivity for PLK1 versus PLK2 compared to compound [I-64] of WO 07/095,188 (PLK2; relative to [I-64]): twice as selective
- selectivity for PLK1 versus PLK2 compared to compound [I-76] (PLK2; relative to [I-76]): ~6 fold
- PLK2 IC50/PLK1 IC50 (PLK2): 35
- selectivity for PLK1 versus PLK3 compared to compound [I-4] (PLK3; relative to [I-4]): 5 fold
- selectivity for PLK1 versus PLK3 compared to compound [I-64] (PLK3; relative to [I-64]): 5 fold
- selectivity for PLK1 versus PLK3 compared to compound [I-76] (PLK3; relative to [I-76]): ~12 fold
- PLK3 IC50/PLK1 IC50 (PLK3): 330

Compound: COc1cc(C(=O)NC2CCN(C)CC2)ccc1Nc1ncc2c(n1)N(C(C)C)CC1(CC1)C(=O)N2C [Compound 99, 4-(9-Isopropyl-5-methyl-6-oxo-6,7,8,9-tetrahydro-5H-spiro[pyrimido[4,5-b] [1,4]diazepin-3,1′-cyclopropane]-2-ylamino)-3-methoxy-N-(1-methyl-piperidin-4-yl)-benzamide]
- IC50 (human PLK1; Table 2): < 1 µM

Compound: CN1C(=O)CCN(C2CCCC2)c2nc(NCc3ccsc3)ncc21 [Compound 106, 9-Cyclopentyl-5-methyl-2-[(thiophen-3-ylmethyl)-amino]-5,7,8,9-tetrahydro-pyrimido[4,5-b][1,4]di-azepin-6-one]
- IC50 (human PLK1; Table 2): < 1 µM

Compound: COc1cc(C(=O)NC2c3ccccc3C[C@H]2O)ccc1Nc1ncc2c(n1)N(C1CCCC1)CC1(CC1)C(=O)N2C (stereo partly drawn) [Compound 184, 4-(9-Cyclopentyl-5-methyl-6-oxo-6,7,8,9-tetrahydro-5H-spiro[pyrimido[4,5-b] [1,4]diazepin-3,1′-cyclopropane]-2-ylamino)-N-((1S,2R)-2-hydroxy-indan-1-yl)-3-methoxy-benzamide]
- IC50 (human PLK1; Table 2): < 1 µM

Compound: COc1cc(C(=O)NCC2CCCCN2C)ccc1Nc1ncc2c(n1)N(C1CCCC1)CCC(=O)N2C (centres unmarked) [Compound 202, 4-(9-Cyclopentyl-5-methyl-6-oxo-6,7,8,9-tetrahydro-5H-pyrimido[4,5-b] [1,4]diazepin-2-ylamino)-3-methoxy-N-(1-methyl-piperidin-2-ylmethyl)-benzamide]
- IC50 (human PLK1; Table 2): < 1 µM

Compound: CCN(CC)CCNC(=O)c1ccc(Nc2ncc3c(n2)N(CC2CC2)CCC(=O)N3C)c(OC)c1 [Compound 240, 4-(9-Cyclopropyl-methyl-5-methyl-6-oxo-6,7,8,9-tetrahydro-5H-pyrimido[4,5-b] [1,4]diazepin-2-ylamino)-N-(2-diethylamino-ethyl)-3-methoxy-benzamide]
- IC50 (human PLK1; Table 2): < 0.1 µM

Compound: COc1cc(C(=O)NN2CCN(C)CC2)ccc1Nc1ncc2c(n1)N(C1CCCC1)CC1(CC1)C(=O)N2C [Compound 254, 4-(9′-cyclopentyl-5′-methyl-6′-oxo-5′,6′,8′,9′-tetrahydrospiro[cyclopropane-1,7′-pyrimido[4,5-b][1,4]diazepine]-2′-ylamino)-3-methoxy-N-(4-methylpiperazin-1-yl)benzamide]
- solubility [1, 3]: ≥ 200 µM
- solubility ([1]; phosphate buffered saline with 2% DMSO, pH 7.5, aqueous buffer, kinetic from dmso stock, 2% DMSO: 98% phosphate buffered saline pH 7.5, read-out: Nephelometry soluble concentration): > 110 µg/mL

Compound: COc1cc(C(=O)N[C@H]2CC[C@H](N3CCN(CC4CC4)CC3)CC2)ccc1Nc1ncc2c(n1)N(C1CCCC1)CC(C)(C)C(=O)N2C [Compound 372, 4-(9-cyclopentyl-5,7,7-trimethyl-6-oxo-6,7,8,9-tetrahydro-5H-pyrimido[4,5-b][1,4]diazepin-2-ylamino)-N-((trans)-4-(4-(cyclopropylmethyl)piperazin-1-yl)cyclohexyl)-3-methoxybenzamide]
- cellular efflux (MDR/parental cell asymmetry) (A2780/ADR cells): low cellular efflux

Compound: COc1cc(C(=O)NC2CCN(C)CC2)ccc1Nc1ncc2c(n1)N(C1CCCC1)CC1(CCC1)C(=O)N2C [WO 2007/095188 [I-64], reference compound]
- PLK2 IC50/PLK1 IC50 (PLK2): 17
- PLK3 IC50/PLK1 IC50 (PLK3): 67
